Source: US20240327364A1, “THERAPEUTIC TARGETING OF GPR68 TO INDUCE FERROPTOSIS” (University Of Maryland, Baltimore, priority 2023, published 2024)

Key:
ULK3 = target: T1, ULK3 (Homo sapiens, UniProt Q6PHR2); test: KinomeScan; assay type: binding; settings: read-out: % Control
T1 construct: purchased DiscoveRx

MC5 = target: T2, MC5 (Homo sapiens, UniProt P33032); test: GPCR Profiler; assay type: cell-based
T2 construct: host or cells: Chem-1 cells with promiscuous Gα15

CB2 = target: T3, CB2 (Homo sapiens, UniProt P34972); test: GPCR Profiler; assay type: cell-based
T3 construct: host or cells: Chem-1 cells with promiscuous Gα15

CAMKK1 = target: T4, CAMKK1 (Homo sapiens, UniProt Q8N5S9); test: KinomeScan; assay type: binding; settings: read-out: % Control
T4 construct: purchased DiscoveRx (KinomeScan service)

CDC2L2 = target: T5, CDC2L2 (Homo sapiens, UniProt Q9UQ88); test: KinomeScan; assay type: binding; settings: read-out: % Control
T5 construct: purchased DiscoveRx (KinomeScan service)

MERTK = target: T6, MERTK (Homo sapiens, UniProt Q12866); test: KinomeScan; assay type: binding; settings: read-out: % Control
T6 construct: purchased DiscoveRx (Fremont, CA)

PIK3CA(M1043I) = target: T7, PIK3CA(M1043I) (Homo sapiens, UniProt P42336, M1043I); test: KinomeScan; assay type: binding; settings: read-out: % Control
T7 construct: purchased DiscoveRx (Fremont, CA)

M2 = target: T8, M2 (Homo sapiens, UniProt P08172); test: GPCR Profiler; assay type: cell-based
T8 construct: host or cells: Chem-1 cells with promiscuous Gα15

[1] = target: T9, JAK1(JH1domain-catalytic) (Homo sapiens, UniProt P23458); test: KinomeScan; assay type: binding; settings: read-out: % Control
T9 construct: JAK1(JH1domain-catalytic); purchased DiscoveRx (Fremont, CA)

GPR54 = target: T10, GPR54 (Homo sapiens, UniProt Q969F8); test: GPCR Profiler; assay type: cell-based
T10 construct: host or cells: Chem-1 cells with promiscuous Gα15

CXCR1 = target: T11, CXCR1 (Homo sapiens, UniProt P25024); test: GPCR Profiler; assay type: cell-based
T11 construct: host or cells: Chem-1 cells with Gα15

FGFR3(G697C) = target: T12, FGFR3(G697C) (Homo sapiens, UniProt P22607, G697C); test: KinomeScan; assay type: binding; settings: read-out: % Control
T12 construct: purchased DiscoveRx (Fremont, CA)

H3 = target: T13, H3 (Homo sapiens, UniProt Q9Y5N1); test: GPCR Profiler; assay type: cell-based
T13 construct: host or cells: Chem-1 cells with promiscuous Gα15

HUNK = target: T14, HUNK (Homo sapiens, UniProt P57058); test: KinomeScan; assay type: binding; settings: read-out: % Control
T14 construct: purchased DiscoveRx (Fremont, CA)

TNK1 = target: T15, TNK1 (Homo sapiens, UniProt Q13470); test: KinomeScan; assay type: binding; settings: read-out: % Control
T15 construct: purchased DiscoveRx (Fremont, CA)

CAMK2G = target: T16, CAMK2G (Homo sapiens, UniProt Q13555); test: KinomeScan; assay type: binding; settings: read-out: % Control
T16 construct: purchased DiscoveRx (KinomeScan service)

CSNK2A2 = CSNK2A2 (Homo sapiens, UniProt P19784); test: KinomeScan; assay type: binding; settings: read-out: % Control
STK36 = target: T17, STK36 (Homo sapiens, UniProt Q9NRP7); test: KinomeScan; assay type: binding; settings: read-out: % Control
T17 construct: purchased DiscoveRx (Fremont, CA)

LPA3 = target: T18, LPA3 (Homo sapiens, UniProt Q9UBY5); test: GPCR Profiler; assay type: cell-based
T18 construct: host or cells: Chem-1 cells with promiscuous Gα15

EPHA4 = target: T19, EPHA4 (Homo sapiens, UniProt P54764); test: KinomeScan; assay type: binding; settings: read-out: % Control
T19 construct: purchased DiscoveRx (Fremont, CA)

ICK = target: T20, ICK (Homo sapiens, UniProt Q9UPZ9); test: KinomeScan; assay type: binding; settings: read-out: % Control
T20 construct: purchased DiscoveRx (Fremont, CA)

ADRB2 = target: T21, ADRB2 (Homo sapiens, UniProt P07550); test: GPCR Profiler; assay type: cell-based
T21 construct: host or cells: Chem-1 cells with promiscuous Gα15

EPHA7 = target: T22, EPHA7 (Homo sapiens, UniProt Q15375); test: KinomeScan; assay type: binding; settings: read-out: % Control
T22 construct: purchased DiscoveRx (Fremont, CA)

ACVR1 = target: T23, ACVR1 (Homo sapiens, UniProt Q04771); test: KinomeScan; assay type: binding; settings: read-out: % Control
T23 construct: purchased DiscoveRx

CSNK1A1 = CSNK1A1 (Homo sapiens, UniProt P48729); test: KinomeScan; assay type: binding; settings: read-out: % Control
GRK4 = target: T24, GRK4 (Homo sapiens, UniProt P32298); test: KinomeScan; assay type: binding; settings: read-out: % Control
T24 construct: purchased DiscoveRx (Fremont, CA)

GPR43 = target: T25, GPR43 (Homo sapiens, UniProt O15552); test: GPCR Profiler; assay type: cell-based
T25 construct: host or cells: Chem-1 cells with promiscuous Gα15

GAK = target: T26, GAK (Homo sapiens, UniProt O14976); test: KinomeScan; assay type: binding; settings: read-out: % Control
T26 construct: purchased DiscoveRx (Fremont, CA)

EPHA1 = target: T27, EPHA1 (Homo sapiens, UniProt P21709); test: KinomeScan; assay type: binding; settings: read-out: % Control
T27 construct: purchased DiscoveRx (Fremont, CA)

IRAK3 = target: T28, IRAK3 (Homo sapiens, UniProt Q9Y616); test: KinomeScan; assay type: binding; settings: read-out: % Control
T28 construct: purchased DiscoveRx (Fremont, CA)

T2 sequence (P33032 whole entry): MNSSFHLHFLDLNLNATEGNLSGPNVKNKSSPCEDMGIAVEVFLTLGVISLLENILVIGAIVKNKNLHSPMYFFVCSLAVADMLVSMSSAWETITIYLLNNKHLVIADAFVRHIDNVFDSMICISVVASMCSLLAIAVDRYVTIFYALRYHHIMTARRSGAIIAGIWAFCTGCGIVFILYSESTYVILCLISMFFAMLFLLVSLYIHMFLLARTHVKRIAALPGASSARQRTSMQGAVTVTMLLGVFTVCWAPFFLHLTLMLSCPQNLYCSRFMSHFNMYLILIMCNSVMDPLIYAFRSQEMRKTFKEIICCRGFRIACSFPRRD
T3 sequence (P34972 whole entry, species assumed): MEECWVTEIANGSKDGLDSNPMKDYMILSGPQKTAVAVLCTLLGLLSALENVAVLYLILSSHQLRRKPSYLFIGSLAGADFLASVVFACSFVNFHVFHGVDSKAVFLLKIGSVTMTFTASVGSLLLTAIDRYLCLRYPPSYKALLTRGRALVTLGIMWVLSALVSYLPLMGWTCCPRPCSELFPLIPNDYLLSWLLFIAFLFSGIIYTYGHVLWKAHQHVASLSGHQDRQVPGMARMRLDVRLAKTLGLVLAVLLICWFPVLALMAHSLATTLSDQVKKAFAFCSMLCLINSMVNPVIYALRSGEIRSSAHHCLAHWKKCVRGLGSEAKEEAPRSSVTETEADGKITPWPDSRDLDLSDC
T10 sequence (Q969F8 whole entry, species assumed): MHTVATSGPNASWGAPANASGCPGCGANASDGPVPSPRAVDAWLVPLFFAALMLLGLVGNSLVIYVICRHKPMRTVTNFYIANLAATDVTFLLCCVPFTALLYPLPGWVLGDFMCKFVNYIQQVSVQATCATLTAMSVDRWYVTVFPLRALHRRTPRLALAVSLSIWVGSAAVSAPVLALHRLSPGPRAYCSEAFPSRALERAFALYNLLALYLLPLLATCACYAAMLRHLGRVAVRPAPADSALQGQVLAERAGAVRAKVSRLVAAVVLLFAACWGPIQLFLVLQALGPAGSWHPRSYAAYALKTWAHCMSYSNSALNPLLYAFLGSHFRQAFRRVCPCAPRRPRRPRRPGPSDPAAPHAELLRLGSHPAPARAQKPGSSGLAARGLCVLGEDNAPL
T21 sequence (P07550 whole entry, species assumed): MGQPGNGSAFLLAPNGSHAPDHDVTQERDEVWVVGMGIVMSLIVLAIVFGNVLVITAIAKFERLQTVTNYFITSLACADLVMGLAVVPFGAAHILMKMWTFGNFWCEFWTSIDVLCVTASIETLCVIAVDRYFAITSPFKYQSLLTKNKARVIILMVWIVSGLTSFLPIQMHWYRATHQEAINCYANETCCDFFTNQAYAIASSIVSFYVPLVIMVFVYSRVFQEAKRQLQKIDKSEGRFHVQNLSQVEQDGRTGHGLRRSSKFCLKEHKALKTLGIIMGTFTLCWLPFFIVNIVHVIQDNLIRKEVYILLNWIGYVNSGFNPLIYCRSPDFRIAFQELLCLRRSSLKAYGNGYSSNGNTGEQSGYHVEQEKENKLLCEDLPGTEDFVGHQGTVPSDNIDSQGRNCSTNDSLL
T25 sequence (O15552 whole entry, species assumed): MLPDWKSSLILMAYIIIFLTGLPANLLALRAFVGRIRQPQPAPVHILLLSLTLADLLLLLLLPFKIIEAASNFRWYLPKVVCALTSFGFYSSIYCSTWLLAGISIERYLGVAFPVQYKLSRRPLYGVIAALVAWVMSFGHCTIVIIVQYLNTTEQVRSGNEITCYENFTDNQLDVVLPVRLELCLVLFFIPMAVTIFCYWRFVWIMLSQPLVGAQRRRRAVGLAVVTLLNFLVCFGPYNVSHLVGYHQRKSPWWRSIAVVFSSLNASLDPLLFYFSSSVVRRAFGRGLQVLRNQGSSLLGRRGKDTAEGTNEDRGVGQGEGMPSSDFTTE
T13 sequence (Q9Y5N1 whole entry): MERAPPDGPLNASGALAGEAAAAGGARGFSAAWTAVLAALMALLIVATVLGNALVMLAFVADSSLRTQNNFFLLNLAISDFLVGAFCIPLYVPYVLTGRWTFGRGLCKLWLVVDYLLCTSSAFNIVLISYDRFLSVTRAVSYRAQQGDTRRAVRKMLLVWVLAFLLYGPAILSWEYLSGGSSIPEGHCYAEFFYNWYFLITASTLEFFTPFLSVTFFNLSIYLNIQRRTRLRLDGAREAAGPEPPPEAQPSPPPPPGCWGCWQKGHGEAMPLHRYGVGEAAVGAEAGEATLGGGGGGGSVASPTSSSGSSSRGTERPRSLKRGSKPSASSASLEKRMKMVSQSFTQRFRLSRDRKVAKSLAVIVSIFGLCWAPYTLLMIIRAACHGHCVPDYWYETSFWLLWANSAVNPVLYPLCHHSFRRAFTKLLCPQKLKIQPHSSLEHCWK
T18 sequence (Q9UBY5 whole entry, species assumed): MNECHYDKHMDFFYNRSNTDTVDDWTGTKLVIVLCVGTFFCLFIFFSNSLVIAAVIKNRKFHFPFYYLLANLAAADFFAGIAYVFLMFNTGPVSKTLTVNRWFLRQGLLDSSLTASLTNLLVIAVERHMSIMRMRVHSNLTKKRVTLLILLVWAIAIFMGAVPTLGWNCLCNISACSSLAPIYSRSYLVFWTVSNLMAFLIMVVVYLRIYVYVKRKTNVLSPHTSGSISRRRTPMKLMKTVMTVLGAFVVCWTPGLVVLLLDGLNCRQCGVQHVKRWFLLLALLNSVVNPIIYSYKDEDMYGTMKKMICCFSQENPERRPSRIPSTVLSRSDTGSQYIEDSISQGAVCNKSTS
T11 sequence (P25024 whole entry, species assumed): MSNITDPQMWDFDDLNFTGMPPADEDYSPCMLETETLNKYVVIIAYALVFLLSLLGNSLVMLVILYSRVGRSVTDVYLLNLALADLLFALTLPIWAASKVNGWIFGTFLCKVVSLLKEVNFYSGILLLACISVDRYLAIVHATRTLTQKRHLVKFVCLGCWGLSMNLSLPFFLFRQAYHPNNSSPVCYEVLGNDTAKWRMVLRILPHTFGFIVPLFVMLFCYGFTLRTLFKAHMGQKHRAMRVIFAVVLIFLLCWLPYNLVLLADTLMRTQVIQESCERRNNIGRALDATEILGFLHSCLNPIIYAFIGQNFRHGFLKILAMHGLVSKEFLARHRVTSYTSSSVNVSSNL
T8 sequence (P08172 whole entry): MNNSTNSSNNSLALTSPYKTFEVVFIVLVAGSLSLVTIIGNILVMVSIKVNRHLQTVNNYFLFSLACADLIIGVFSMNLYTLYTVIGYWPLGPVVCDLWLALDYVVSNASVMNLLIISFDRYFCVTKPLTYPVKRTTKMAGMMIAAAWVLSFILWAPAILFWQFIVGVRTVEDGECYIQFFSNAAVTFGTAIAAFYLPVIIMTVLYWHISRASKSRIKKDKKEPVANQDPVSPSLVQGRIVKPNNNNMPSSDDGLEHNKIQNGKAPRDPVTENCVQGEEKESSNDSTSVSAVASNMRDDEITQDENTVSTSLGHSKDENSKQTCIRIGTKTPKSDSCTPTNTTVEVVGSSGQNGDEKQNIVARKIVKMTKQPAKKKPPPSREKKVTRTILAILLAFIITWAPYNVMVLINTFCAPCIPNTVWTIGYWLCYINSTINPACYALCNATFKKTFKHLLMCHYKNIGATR
T17 sequence (Q9NRP7 whole entry): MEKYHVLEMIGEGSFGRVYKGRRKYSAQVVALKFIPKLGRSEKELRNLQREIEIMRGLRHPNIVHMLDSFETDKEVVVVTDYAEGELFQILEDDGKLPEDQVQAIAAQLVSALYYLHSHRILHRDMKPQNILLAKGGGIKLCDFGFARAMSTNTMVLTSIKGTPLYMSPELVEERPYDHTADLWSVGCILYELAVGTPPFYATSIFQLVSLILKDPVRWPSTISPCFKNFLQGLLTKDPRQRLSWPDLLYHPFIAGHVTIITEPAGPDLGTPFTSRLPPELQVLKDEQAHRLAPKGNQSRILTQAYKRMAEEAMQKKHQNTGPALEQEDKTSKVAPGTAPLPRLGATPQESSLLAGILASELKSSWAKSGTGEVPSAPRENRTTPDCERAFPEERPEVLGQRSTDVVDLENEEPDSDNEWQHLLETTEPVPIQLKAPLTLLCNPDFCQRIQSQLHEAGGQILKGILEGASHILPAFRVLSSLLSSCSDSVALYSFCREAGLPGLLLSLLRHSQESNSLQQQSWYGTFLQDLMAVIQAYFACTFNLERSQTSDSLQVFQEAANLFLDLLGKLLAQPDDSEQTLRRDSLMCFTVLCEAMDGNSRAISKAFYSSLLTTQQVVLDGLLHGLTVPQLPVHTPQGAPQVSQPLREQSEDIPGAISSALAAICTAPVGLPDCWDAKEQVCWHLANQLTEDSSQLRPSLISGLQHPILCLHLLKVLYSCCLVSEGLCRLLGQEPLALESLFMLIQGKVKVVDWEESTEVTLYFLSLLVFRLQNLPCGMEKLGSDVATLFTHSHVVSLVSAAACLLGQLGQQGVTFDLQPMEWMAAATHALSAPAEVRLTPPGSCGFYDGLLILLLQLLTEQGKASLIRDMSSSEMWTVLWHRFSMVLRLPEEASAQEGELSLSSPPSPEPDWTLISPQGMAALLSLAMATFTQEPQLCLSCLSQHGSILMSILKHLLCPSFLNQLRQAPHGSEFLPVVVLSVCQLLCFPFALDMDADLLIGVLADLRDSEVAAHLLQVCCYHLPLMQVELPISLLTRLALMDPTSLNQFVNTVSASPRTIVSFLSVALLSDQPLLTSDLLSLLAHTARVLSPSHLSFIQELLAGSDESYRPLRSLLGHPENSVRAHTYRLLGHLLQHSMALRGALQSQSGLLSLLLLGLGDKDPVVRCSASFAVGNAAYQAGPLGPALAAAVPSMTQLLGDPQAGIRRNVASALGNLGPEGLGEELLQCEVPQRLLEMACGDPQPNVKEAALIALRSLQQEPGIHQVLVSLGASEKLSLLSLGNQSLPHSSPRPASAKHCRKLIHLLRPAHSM

CCc1ccc2c(c1)C1(NN=C(c3cccc4ccccc34)S1)C(=O)N2 (stereo not drawn) [OGM1, 5-ethyl-5′-naphthalen-1-ylspiro[1H-indole-3,2′-3H-1,3,4-thiadiazole]-2-one]
remaining binding at 10 µM (ULK3): 100%
Antagonism (MC5; 10 uM): 13.9
Agonism (MC5; 12.5 uM): 0.9
Antagonism (CB2; 10 uM): −13.8
Agonism (CB2; 12.5 uM): −2.4
remaining binding at 10 µM (CAMKK1): 86%
remaining binding at 10 µM (CDC2L2): 93%
remaining binding at 10 µM (MERTK): 80%
remaining binding at 10 µM (PIK3CA(M1043I)): 59%
Antagonism (M2; 10 uM): 3.3
Agonism (M2; 12.5 uM): −0.1
remaining binding at 10 µM [1]: 59%
Antagonism (GPR54; 10 uM): −5.8
Agonism (GPR54; 12.5 uM): −0.6
Antagonism (CXCR1; 10 uM): 6.5
Agonism (CXCR1; 12.5 uM): −0.7
remaining binding at 10 µM (FGFR3(G697C)): 99%
Antagonism (H3; 10 uM): −3.3
Agonism (H3; 12.5 uM): 0.5
remaining binding at 10 µM (HUNK): 83%
remaining binding at 10 µM (TNK1): 100%
remaining binding at 10 µM (CAMK2G): 85%
remaining binding at 10 µM (CSNK2A2): 93%
remaining binding at 10 µM (STK36): 100%
Antagonism (LPA3; 10 uM): 1.1
Agonism (LPA3; 12.5 uM): 0.3
remaining binding at 10 µM (EPHA4): 100%
remaining binding at 10 µM (ICK): 81%
Antagonism (ADRB2; 10 uM): −9.5
Agonism (ADRB2; 12.5 uM): −0.1
remaining binding at 10 µM (EPHA7): 100%
remaining binding at 10 µM (ACVR1): 100%
remaining binding at 10 µM (CSNK1A1): 75%
remaining binding at 10 µM (GRK4): 96%
Antagonism (GPR43; 10 uM): 6.4
Agonism (GPR43; 12.5 uM): −0.2
remaining binding at 10 µM (GAK): 64%
remaining binding at 10 µM (EPHA1): 92%
remaining binding at 10 µM (IRAK3): 97%
